Square brackets hold non-standard residues; d marks the D form. Ends that are not written are not given here. dOrn = NCCC[C@@H](N)C(=O)O; βAla = NCCC(=O)O
How the values were obtained:
human lymphocytes [1] = test: Laser scanning confocal microscopy of internalization into human lymphocytes; assay type: cell-based; details: 1 μM
Procedure: Freshly isolated human lymphocytes were incubated with fluorescently labeled Tat-BH4 peptide to confirm intracellular localization of the functional permeant peptide. For labeling, cells were suspended for 30 minutes in modified Earl's balanced salt solution containing 1 μM of the fluorescently labeled TAT-BH4. Control cells were treated identically except no labeled TAT-BH4 was added. Following fixation for 10 minutes in 4% paraformaldehyde, cells were analyzed for peptide internalization via detection of fluorescence by confocal microscopy using an inverted Zeiss Axiovert 200 laser scanning confocal microscope couple to a Zeiss LSM 5 PASCAL fitted with a 488 nm excitation Argon laser and a 520 nm bandpass emission filter. All images were obtained using a water immersion lens (40×) and identical instrument settings.

human lymphocytes [2] = test: E. coli bacterial-induced lymphocyte apoptosis, staining for active caspase 3; assay type: cell-based; details: human lymphocytes, live E. coli ~5 hours
Procedure: (§1) Thymocytes and splenocytes were obtained from CLP and sham-treated mice ˜20 hours postoperatively. The APO-BRDU™ kit (Phoenix Flow Systems, San Diego, Calif.) was employed for flow cytometric quantitation of TUNEL. Antibodies to active caspase 3 (Cell Signaling—Catalog #9664) were used in the flow cytometry and/or TUNEL assay.
Lymphocytes were harvested from peripheral blood obtained from 6 healthy volunteers using a ficol gradient separation technique. Approximately 1×10^6 lymphocytes were plated in individual transwell containers. E. coli bacteria (strain ATCC 25922), that had been grown overnight in trypticase soy broth were added to a separate compartment of the transwell chamber separated from direct contact with the lymphocytes by a 0.02 micron filter (25 μl of bacteria at 3×10^9 CFUs added to 1 ml volume.

[3] = test system: sepsis-induced lymphocyte apoptosis; test: Cecal ligation and puncture (CLP) sepsis model, lymphocyte apoptosis by active caspase 3; assay type: in vivo, C57BL6/J mice; details: mice, 1 mg by mini-osmotic pump plus additional 9.5 mg dose i.p.
Procedure: C57BL6/J male mice were housed for at least one week before manipulations. Mice were anesthetized with halothane and an abdominal incision was performed. The cecum was identified, ligated, and punctured with a #30 gauge needle. The abdomen was closed in two layers and 1 cc of 0.9% saline was administered subcutaneously.
as §1
The pumps were implanted approximately 3 hours prior to CLP because it requires ˜3 hours for pumps to activate and deliver steady state levels of compound.
The pumps were not activated until approximately three hours after implantation. […] Spleens, thymi and blood were harvested and examined for apoptosis via staining for active caspase 3.

| Substance | internalization into human lymphocytes (human lymphocytes [1]) | bacterial-induced apoptosis (human lymphocytes [2]; 500 nM) | bacterial-induced apoptosis (human lymphocytes [2]; 1 μM) | sepsis-induced CD3 T cell and B cell apoptosis in the spleen [3] |
| --- | --- | --- | --- | --- |
| (d) ac-C(FM)RKKRR-Orn-RRR-β-A-(I)-SNRELVVDFLSYKLSQKGYS-COOH ([dR][dK][dK][dR][dR][dOrn][dR][dR][dR][βAla]SNRELVVDFLSYKLSQKGYS-OH; not fully specified (N-terminus)) [fluorescein conjugated TAT-BH4] | located intracellular |  |  |  |
| (d)-Ac-RKKRR-Orn-RRR-β-A-(l)-SNRELVVDFLSYKLSQKGYS-COOH (Ac-[dR][dK][dK][dR][dR][dOrn][dR][dR][dR][βAla]SNRELVVDFLSYKLSQKGYS-OH; SMILES CC(=O)N[C@H](CCCNC(=N)N)C(=O)N[C@H](CCCCN)C(=O)N[C@H](CCCCN)C(=O)N[C@H](CCCNC(=N)N)C(=O)N[C@H](CCCNC(=N)N)C(=O)N[C@H](CCCN)C(=O)N[C@H](CCCNC(=N)N)C(=O)N[C@H](CCCNC(=N)N)C(=O)N[C@H](CCCNC(=N)N)C(=O)NCCC(=O)N[C@@H](CO)C(=O)N[C@@H](CC(N)=O)C(=O)N[C@@H](CCCNC(=N)N)C(=O)N[C@@H](CCC(=O)O)C(=O)N[C@@H](CC(C)C)C(=O)N[C@H](C(=O)N[C@H](C(=O)N[C@@H](CC(=O)O)C(=O)N[C@@H](Cc1ccccc1)C(=O)N[C@@H](CC(C)C)C(=O)N[C@@H](CO)C(=O)N[C@@H](Cc1ccc(O)cc1)C(=O)N[C@@H](CCCCN)C(=O)N[C@@H](CC(C)C)C(=O)N[C@@H](CO)C(=O)N[C@@H](CCC(N)=O)C(=O)N[C@@H](CCCCN)C(=O)NCC(=O)N[C@@H](Cc1ccc(O)cc1)C(=O)N[C@@H](CO)C(=O)O)C(C)C)C(C)C) [TAT-BH4] |  | significant decrease | significant decrease | ameliorated the increase |

From patent publication US8038984B2, “Membrane-permeant peptide complexes for treatment of sepsis” (Washington University, priority 1998, dated 2011)
